Consider 24 compounds from ChEMBL document CHEMBL5291721, “A preclinical secondary pharmacology resource illuminates target-adverse drug reaction associations of marketed drugs” (Nat Commun, 2023).

Assay [1] deals with T1, Alpha-1A adrenergic receptor (Homo sapiens, UniProt P35348).
T1 sequence (P35348 whole entry): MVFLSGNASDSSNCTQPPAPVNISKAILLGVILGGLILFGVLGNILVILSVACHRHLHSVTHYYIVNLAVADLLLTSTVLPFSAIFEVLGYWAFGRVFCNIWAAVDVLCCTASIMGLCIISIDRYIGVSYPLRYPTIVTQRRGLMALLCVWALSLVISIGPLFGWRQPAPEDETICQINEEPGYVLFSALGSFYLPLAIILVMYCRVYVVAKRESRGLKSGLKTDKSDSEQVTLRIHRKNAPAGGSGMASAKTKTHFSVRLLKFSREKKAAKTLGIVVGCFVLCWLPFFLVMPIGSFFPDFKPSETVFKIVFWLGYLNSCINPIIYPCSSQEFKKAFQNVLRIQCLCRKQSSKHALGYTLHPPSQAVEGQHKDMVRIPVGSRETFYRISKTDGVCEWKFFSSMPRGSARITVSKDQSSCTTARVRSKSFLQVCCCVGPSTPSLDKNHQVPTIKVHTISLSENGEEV

For assay [2], the target named is Vasopressin V1a receptor (Homo sapiens, UniProt P37288).
Assay [3] deals with T2, 5-hydroxytryptamine receptor 1A (Homo sapiens, UniProt P08908).
T2 sequence (P08908 whole entry): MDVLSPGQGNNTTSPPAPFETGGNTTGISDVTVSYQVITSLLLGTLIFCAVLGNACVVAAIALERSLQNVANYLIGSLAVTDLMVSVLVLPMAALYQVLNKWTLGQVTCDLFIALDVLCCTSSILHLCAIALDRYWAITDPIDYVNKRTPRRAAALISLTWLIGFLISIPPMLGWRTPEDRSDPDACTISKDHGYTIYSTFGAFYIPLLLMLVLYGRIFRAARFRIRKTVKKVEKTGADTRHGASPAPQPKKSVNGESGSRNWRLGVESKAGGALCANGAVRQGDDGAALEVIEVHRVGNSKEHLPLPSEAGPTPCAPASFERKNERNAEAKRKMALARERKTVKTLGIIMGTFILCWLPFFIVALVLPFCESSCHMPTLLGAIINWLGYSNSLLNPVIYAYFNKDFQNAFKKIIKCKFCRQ
The class given is functional, cell-based.

Assay [4] has as its target T2, 5-hydroxytryptamine receptor 1A. The class given is functional, cell-based. This is another data set of the same source.
Assay [5] concerns the target T3, Glucocorticoid receptor (Homo sapiens, UniProt P04150).
T3 sequence (P04150 whole entry): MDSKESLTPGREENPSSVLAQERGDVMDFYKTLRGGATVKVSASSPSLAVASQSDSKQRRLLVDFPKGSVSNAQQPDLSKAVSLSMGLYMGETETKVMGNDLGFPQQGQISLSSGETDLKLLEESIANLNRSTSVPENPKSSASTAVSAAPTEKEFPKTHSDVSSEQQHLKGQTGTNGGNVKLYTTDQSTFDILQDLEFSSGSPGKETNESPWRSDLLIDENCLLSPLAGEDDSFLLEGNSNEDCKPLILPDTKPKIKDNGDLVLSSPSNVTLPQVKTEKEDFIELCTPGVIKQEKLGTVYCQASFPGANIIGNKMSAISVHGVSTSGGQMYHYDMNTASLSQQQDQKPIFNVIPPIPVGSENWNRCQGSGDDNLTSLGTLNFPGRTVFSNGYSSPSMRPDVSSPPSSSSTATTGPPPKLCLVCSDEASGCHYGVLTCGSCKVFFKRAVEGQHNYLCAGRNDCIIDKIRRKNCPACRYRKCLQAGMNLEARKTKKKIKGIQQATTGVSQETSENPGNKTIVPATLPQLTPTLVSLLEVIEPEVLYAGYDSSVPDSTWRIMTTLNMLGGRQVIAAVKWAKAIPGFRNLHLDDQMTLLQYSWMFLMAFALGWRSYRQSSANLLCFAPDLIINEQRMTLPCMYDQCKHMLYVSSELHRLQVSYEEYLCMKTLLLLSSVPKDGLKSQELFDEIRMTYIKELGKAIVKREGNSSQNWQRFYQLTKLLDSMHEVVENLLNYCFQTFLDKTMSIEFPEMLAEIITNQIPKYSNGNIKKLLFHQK

The target of assay [6] is Cannabinoid receptor 1 (Homo sapiens, UniProt P21554). In kind it is functional, cell-based.
Assay [7] addresses 5-hydroxytryptamine receptor 2A (Homo sapiens, UniProt P28223). The class given is functional, cell-based.

Some results are limits rather than exact numbers.
Further: assay procedure not described here.

Chain of Vasopressin V1a receptor (P37288 whole entry): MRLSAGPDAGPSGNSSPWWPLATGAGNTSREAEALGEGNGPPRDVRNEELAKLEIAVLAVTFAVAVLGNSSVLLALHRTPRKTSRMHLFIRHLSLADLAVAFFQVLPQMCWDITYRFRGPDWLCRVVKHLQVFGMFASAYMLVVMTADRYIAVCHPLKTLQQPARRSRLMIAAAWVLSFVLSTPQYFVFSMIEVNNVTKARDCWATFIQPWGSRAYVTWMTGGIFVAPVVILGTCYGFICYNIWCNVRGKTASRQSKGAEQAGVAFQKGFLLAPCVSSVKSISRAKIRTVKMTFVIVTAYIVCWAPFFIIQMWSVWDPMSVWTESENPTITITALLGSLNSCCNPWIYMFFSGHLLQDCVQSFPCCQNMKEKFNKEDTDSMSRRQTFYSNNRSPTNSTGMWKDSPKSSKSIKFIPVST
Chain of 5-hydroxytryptamine receptor 2A (P28223 whole entry): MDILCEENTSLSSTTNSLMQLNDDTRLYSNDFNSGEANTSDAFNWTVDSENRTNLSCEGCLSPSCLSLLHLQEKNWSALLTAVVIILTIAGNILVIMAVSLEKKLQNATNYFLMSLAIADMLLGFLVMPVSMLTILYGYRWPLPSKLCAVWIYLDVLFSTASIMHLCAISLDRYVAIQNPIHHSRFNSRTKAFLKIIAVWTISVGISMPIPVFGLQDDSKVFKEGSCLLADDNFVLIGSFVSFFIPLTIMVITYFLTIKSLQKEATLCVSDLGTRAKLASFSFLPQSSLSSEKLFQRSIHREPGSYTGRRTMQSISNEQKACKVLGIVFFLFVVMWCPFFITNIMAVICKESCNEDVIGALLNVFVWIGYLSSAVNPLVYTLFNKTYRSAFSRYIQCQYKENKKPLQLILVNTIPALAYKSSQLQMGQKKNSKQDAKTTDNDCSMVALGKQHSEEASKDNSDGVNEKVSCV
Chain of Cannabinoid receptor 1 (P21554 whole entry): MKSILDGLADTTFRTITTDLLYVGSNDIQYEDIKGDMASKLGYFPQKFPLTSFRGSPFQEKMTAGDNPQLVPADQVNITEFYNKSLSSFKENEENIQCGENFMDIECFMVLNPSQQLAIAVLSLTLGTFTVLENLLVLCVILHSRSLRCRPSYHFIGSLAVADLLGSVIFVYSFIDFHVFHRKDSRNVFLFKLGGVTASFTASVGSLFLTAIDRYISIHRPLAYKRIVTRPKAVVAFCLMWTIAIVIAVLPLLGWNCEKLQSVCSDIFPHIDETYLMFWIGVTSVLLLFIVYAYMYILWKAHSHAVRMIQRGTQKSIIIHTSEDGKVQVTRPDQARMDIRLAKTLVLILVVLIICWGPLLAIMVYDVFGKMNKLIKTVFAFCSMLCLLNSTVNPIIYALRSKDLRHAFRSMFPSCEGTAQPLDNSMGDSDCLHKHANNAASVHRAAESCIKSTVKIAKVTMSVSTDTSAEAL

`C[C@]12CC[C@H](O)CC1=CC[C@@H]1[C@@H]2CC[C@]2(C)C(c3cccnc3)=CC[C@@H]12` [ABIRATERONE]: the half-maximal activity concentration (AC50) in assay [1] was greater than 10 µM; in assay [2] it was greater than 30 µM; in assay [3], greater than 10 µM; in assay [4] it was greater than 10 µM; in assay [5], greater than 30 µM.

For the compound `CC(=O)OCC[N+](C)(C)C` [ACETYLCHOLINE], the AC50 in assay [1] was greater than 10 µM; in assay [2], greater than 30 µM; in assay [6], greater than 30 µM; in assay [3], 0.15 µM; in assay [5], greater than 30 µM.

Consider `CN(C)C(=O)Oc1cc(OC(=O)N(C)C)cc(C(O)CNC(C)(C)C)c1` (stereo not drawn) [BAMBUTEROL], for which the AC50 in assay [2] and in assay [5] was greater than 30 µM throughout.

In assay [2], `C[C@H]1C[C@H]2[C@@H]3CCC4=CC(=O)C=C[C@]4(C)[C@@]3(Cl)[C@@H](O)C[C@]2(C)[C@@]1(O)C(=O)CO` [BECLOMETHASONE] yielded an AC50 greater than 10 µM.

Consider `CO[C@@]1(NC(=O)CSCC#N)C(=O)N2C(C(=O)O)=C(CSc3nnnn3C)CS[C@@H]21` [CEFMETAZOLE], for which the AC50 in assay [6], in assay [3] and in assay [4] was greater than 30 µM in each case.

For the compound `CO/N=C(\C(=O)N[C@@H]1C(=O)N2C(C(=O)[O-])=C(C[n+]3cccc4c3CCC4)CS[C@H]12)c1csc(N)n1` [CEFPIROME], the half-maximal activity concentration (AC50) in assay [6], in assay [3] and in assay [7] was greater than 30 µM in each case.

On to `NS(=O)(=O)c1cc(C2(O)NC(=O)c3ccccc32)ccc1Cl` (stereo not drawn) [CHLORTHALIDONE], for which the AC50 in assay [1], in assay [3], in assay [4] and in assay [5] was greater than 10 µM in each case.

In the case of `CC[C@H]1OC(=O)[C@H](C)[C@@H](O[C@H]2C[C@@](C)(OC)[C@@H](O)[C@H](C)O2)[C@H](C)[C@@H](O[C@@H]2O[C@H](C)C[C@H](N(C)C)[C@H]2O)[C@](C)(OC)C[C@@H](C)C(=O)[C@H](C)[C@@H](O)[C@]1(C)O` [CLARITHROMYCIN], the AC50 in assay [2], in assay [6], in assay [3] and in assay [5] was greater than 30 µM throughout.

For `C[C@@H]1CCC[C@H](C)N1NC(=O)c1ccc(Cl)c(S(N)(=O)=O)c1` [CLOPAMIDE], the AC50 in assay [2], in assay [6], in assay [3], in assay [4], in assay [7] and in assay [5] was greater than 30 µM each time.

Take `COc1ccc2c(c1)[C@]13CCCC[C@@H]1[C@H](C2)N(C)CC3` [DEXTROMETHORPHAN]: the AC50 in assay [1] is 3.58 µM; in assay [2] it was greater than 10 µM; in assay [3], greater than 10 µM; in assay [4], greater than 10 µM; in assay [5], greater than 30 µM.

Turning to `O=c1oc2ccccc2c(O)c1Cc1c(O)c2ccccc2oc1=O` [DICUMAROL], the AC50 in assay [1], in assay [3] and in assay [4] was greater than 10 µM in each case.

`CCn1cc(C(=O)O)c(=O)c2cc(F)c(N3CCNCC3)nc21` [ENOXACIN]: the AC50 in assay [1], in assay [2], in assay [3] and in assay [4] was greater than 10 µM throughout.

Take `O=C(O)CSCC(=O)NC1CCSC1=O` (stereo not drawn) [ERDOSTEINE]: the AC50 in assay [2], in assay [6], in assay [3] and in assay [7] was greater than 30 µM in each case.

In the case of `COc1cccc(N(C)C(=S)Oc2ccc3c(c2)CCCC3)n1` [LIRANAFTATE], the AC50 in assay [2], in assay [6], in assay [3] and in assay [7] was greater than 30 µM in each case.

With `C#C[C@]1(O)CC[C@H]2[C@@H]3CCc4cc(OC)ccc4[C@H]3CC[C@@]21C` [MESTRANOL], the AC50 in assay [1] is greater than 30 µM; in assay [3], greater than 10 µM; in assay [4] it was greater than 10 µM; in assay [5] it was 0.516 µM.

`N=C(N)c1ccc2cc(OC(=O)c3ccc(N=C(N)N)cc3)ccc2c1` [NAFAMOSTAT]: the AC50 in assay [2], in assay [6], in assay [3] and in assay [7] was greater than 30 µM throughout.

Take `O=C(O)c1cc(O)c2c3nc4ccccc4oc-3cc(=O)c2n1` [PIRENOXINE]: the AC50 in assay [2], in assay [6], in assay [3], in assay [4], in assay [7] and in assay [5] was greater than 30 µM throughout.

Consider `NS(=O)(=O)c1cc(C(=O)O)cc(N2CCCC2)c1Oc1ccccc1` [PIRETANIDE], for which the AC50 in assay [2], in assay [6], in assay [3], in assay [4], in assay [7] and in assay [5] was greater than 30 µM in each case.

Turning to `CNCCCC1c2ccccc2C=Cc2ccccc21` [PROTRIPTYLINE], the AC50 in assay [1] is 0.461 µM; in assay [2] it was greater than 10 µM; in assay [3], greater than 10 µM; in assay [4], greater than 10 µM; in assay [5] it was greater than 10 µM.

As to `COCCCOc1ccnc(C[S+]([O-])c2nc3ccccc3[nH]2)c1C` (stereo not drawn) [RABEPRAZOLE], the AC50 is greater than 10 µM in assay [1]; greater than 10 µM in assay [2]; greater than 10 µM in assay [3]; greater than 10 µM in assay [4]; greater than 30 µM in assay [5].

`CC(C)=CCOc1ccc(/C=C/C(=O)c2ccc(OCC=C(C)C)cc2OCC(=O)O)cc1` [SOFALCONE]: the AC50 in assay [2], in assay [6], in assay [3], in assay [7] and in assay [5] was greater than 30 µM throughout.

Turning to `O=C(CCCN1CCC2(CC1)C(=O)NCN2c1ccccc1)c1ccc(F)cc1` [SPIPERONE], the half-maximal activity concentration (AC50) in assay [1] was 0.31 µM; in assay [2] it was greater than 30 µM; in assay [6], greater than 30 µM; in assay [5] it was greater than 30 µM.

For `CN(C)c1cc(NC(=O)CNC(C)(C)C)c(O)c2c1C[C@H]1C[C@H]3[C@H](N(C)C)C(O)=C(C(N)=O)C(=O)[C@@]3(O)C(O)=C1C2=O` [TIGECYCLINE], the AC50 in assay [1], in assay [2], in assay [3], in assay [7] and in assay [5] was greater than 30 µM throughout.

Take `OCCN1CCN(CC/C=C2/c3ccccc3Sc3ccc(Cl)cc32)CC1` [ZUCLOPENTHIXOL]: the AC50 is 0.0114 µM in assay [1]; greater than 10 µM in assay [2]; greater than 10 µM in assay [3]; 6.4 µM in assay [4]; greater than 10 µM in assay [7]; greater than 10 µM in assay [5].
